Data as given in PubChem BioAssay (NCI).
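Five compound concentrations were applied to cells in 96-well plates for 48 hours; endpoints were derived by simple linear interpolation of the resulting dose-response curve. GI50 marks 50% less growth. TGI: total growth inhibition.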

What was measured:
Assay in all cases: DTP human tumour cell line panel, 48 h
786-0 renal = system: 786-0 renal
A498 renal = system: A498 renal
A549 NSCLC = system: A549 NSCLC
ACHN renal = system: ACHN renal
BT-549 breast = system: BT-549 breast
CAKI-1 renal = system: CAKI-1 renal
CCRF-CEM leukemia = system: CCRF-CEM leukemia
COLO 205 colon = system: COLO 205 colon
DU-145 prostate = system: DU-145 prostate
EKVX NSCLC = system: EKVX NSCLC
HCC-2998 colon = system: HCC-2998 colon
HCT-116 colon = system: HCT-116 colon
HCT-15 colon = system: HCT-15 colon
HL-60(TB) leukemia = system: HL-60(TB) leukemia
HOP-62 NSCLC = system: HOP-62 NSCLC
HOP-92 NSCLC = system: HOP-92 NSCLC
HS 578T breast = system: HS 578T breast
HT29 colon = system: HT29 colon
IGROV1 ovarian = system: IGROV1 ovarian
K-562 leukemia = system: K-562 leukemia
KM12 colon = system: KM12 colon
LOX IMVI melanoma = system: LOX IMVI melanoma
M14 melanoma = system: M14 melanoma
MALME-3M melanoma = system: MALME-3M melanoma
MCF7 breast = system: MCF7 breast
MDA-MB-231 breast = system: MDA-MB-231 breast
MDA-MB-435 = system: MDA-MB-435
MDA-MB-468 breast = system: MDA-MB-468 breast
NCI-H226 lung = system: NCI-H226 lung
NCI-H23 lung = system: NCI-H23 lung
NCI-H460 lung = system: NCI-H460 lung
NCI-H522 lung = system: NCI-H522 lung
NCI/ADR-RES ovarian = system: NCI/ADR-RES ovarian
OVCAR-3 ovarian = system: OVCAR-3 ovarian
OVCAR-4 ovarian = system: OVCAR-4 ovarian
OVCAR-5 ovarian = system: OVCAR-5 ovarian
OVCAR-8 ovarian = system: OVCAR-8 ovarian
PC-3 prostate = system: PC-3 prostate
RPMI-8226 leukemia = system: RPMI-8226 leukemia
RXF 393 renal = system: RXF 393 renal
SF-268 CNS = system: SF-268 CNS
SF-295 CNS = system: SF-295 CNS
SF-539 CNS = system: SF-539 CNS
SK-MEL-2 melanoma = system: SK-MEL-2 melanoma
SK-MEL-28 melanoma = system: SK-MEL-28 melanoma
SK-MEL-5 melanoma = system: SK-MEL-5 melanoma
SK-OV-3 ovarian = system: SK-OV-3 ovarian
SN12C renal = system: SN12C renal
SNB-19 CNS = system: SNB-19 CNS
SNB-75 CNS = system: SNB-75 CNS
SR leukemia = system: SR leukemia
SW-620 colon = system: SW-620 colon
T-47D breast = system: T-47D breast
TK-10 renal = system: TK-10 renal
U251 CNS = system: U251 CNS
UACC-257 melanoma = system: UACC-257 melanoma
UACC-62 melanoma = system: UACC-62 melanoma
UO-31 renal = system: UO-31 renal

In the case of `COc1ccc(-c2nc(S(=O)(=O)c3ccc(C)cc3)c(S(C)(=O)=O)o2)cc1`, the GI50 (786-0 renal) is reported as 1.64 µM, the TGI (786-0 renal) is reported as 3.47 µM and the GI50 (A498 renal) is reported as 14.3 µM. The TGI (A498 renal) was 27.4 µM, the GI50 (A549 NSCLC) was 18.9 µM and the TGI (A549 NSCLC) was 39.4 µM. The GI50 (ACHN renal) was 1.72 µM, the TGI (ACHN renal) was 3.11 µM and the GI50 (BT-549 breast) was 3.39 µM. For the same molecule, the TGI (BT-549 breast) was 10 µM, the GI50 (CAKI-1 renal) was 2.82 µM and the TGI (CAKI-1 renal) was 9.83 µM. The GI50 (CCRF-CEM leukemia) was 2.38 µM, the TGI (CCRF-CEM leukemia) was 6.43 µM and the GI50 (COLO 205 colon) was 2.21 µM. The TGI (COLO 205 colon) was 4.95 µM, the GI50 (DU-145 prostate) was 2.57 µM and the TGI (DU-145 prostate) was 6.82 µM. For the same molecule, the GI50 (EKVX NSCLC) was 11 µM, the TGI (EKVX NSCLC) was 25.4 µM and the GI50 (HCC-2998 colon) was 7.61 µM. It also gave a TGI (HCC-2998 colon) of 21.1 µM, a GI50 (HCT-116 colon) of 1.78 µM and a TGI (HCT-116 colon) of 3.34 µM. The GI50 (HCT-15 colon) was 1.96 µM, the TGI (HCT-15 colon) was 4.2 µM and the GI50 (HL-60(TB) leukemia) was 1.8 µM. It also gave a TGI (HL-60(TB) leukemia) of 6.14 µM, a GI50 (HOP-62 NSCLC) of 20.2 µM and a TGI (HOP-62 NSCLC) of 40 µM. For the same molecule, the GI50 (HOP-92 NSCLC) was 3.03 µM, the TGI (HOP-92 NSCLC) was 11.6 µM and the GI50 (HS 578T breast) was 5.35 µM. For the same molecule, the TGI (HS 578T breast) was 34 µM, the GI50 (HT29 colon) was 2.09 µM and the TGI (HT29 colon) was 4.37 µM. It also gave a GI50 (IGROV1 ovarian) of 7.16 µM, a TGI (IGROV1 ovarian) of 20.4 µM and a GI50 (K-562 leukemia) of 2.91 µM. For the same molecule, the TGI (K-562 leukemia) was greater than 100 µM, the GI50 (KM12 colon) was 16.2 µM and the TGI (KM12 colon) was 32.2 µM. The GI50 (LOX IMVI melanoma) was 1.56 µM, the TGI (LOX IMVI melanoma) was 2.96 µM and the GI50 (M14 melanoma) was 1.95 µM. It also gave a TGI (M14 melanoma) of 4.59 µM, a GI50 (MALME-3M melanoma) of 1.45 µM and a TGI (MALME-3M melanoma) of 2.79 µM. The GI50 (MCF7 breast) was 2.14 µM, the TGI (MCF7 breast) was 6.1 µM and the GI50 (MDA-MB-231 breast) was 1.73 µM. For the same molecule, the TGI (MDA-MB-231 breast) was 3.35 µM, the GI50 (MDA-MB-435) was 5.3 µM and the TGI (MDA-MB-435) was 19.6 µM. For the same molecule, the GI50 (MDA-MB-468 breast) was 1.6 µM, the TGI (MDA-MB-468 breast) was 3.23 µM and the GI50 (NCI-H226 lung) was 16.9 µM. The TGI (NCI-H226 lung) was 38.5 µM, the GI50 (NCI-H23 lung) was 5.57 µM and the TGI (NCI-H23 lung) was 19.1 µM. It also gave a GI50 (NCI-H460 lung) of 10.1 µM, a TGI (NCI-H460 lung) of 24.1 µM and a GI50 (NCI-H522 lung) of 1.66 µM. The TGI (NCI-H522 lung) was 3.28 µM, the GI50 (NCI/ADR-RES ovarian) was 12 µM and the TGI (NCI/ADR-RES ovarian) was 37.5 µM. The GI50 (OVCAR-3 ovarian) was 1.83 µM, the TGI (OVCAR-3 ovarian) was 3.37 µM and the GI50 (OVCAR-4 ovarian) was 3.1 µM. The TGI (OVCAR-4 ovarian) was 11.1 µM, the GI50 (OVCAR-5 ovarian) was 10.9 µM and the TGI (OVCAR-5 ovarian) was 23.1 µM. The GI50 (OVCAR-8 ovarian) was 10.5 µM, the TGI (OVCAR-8 ovarian) was 27.1 µM and the GI50 (PC-3 prostate) was 11.1 µM. It also gave a TGI (PC-3 prostate) of 25.6 µM, a GI50 (RPMI-8226 leukemia) of 3.05 µM and a TGI (RPMI-8226 leukemia) of 17.3 µM. It also gave a GI50 (RXF 393 renal) of 1.47 µM, a TGI (RXF 393 renal) of 2.94 µM and a GI50 (SF-268 CNS) of 12.5 µM. The TGI (SF-268 CNS) was 30 µM, the GI50 (SF-295 CNS) was 14.6 µM and the TGI (SF-295 CNS) was 27.8 µM. It also gave a GI50 (SF-539 CNS) of 1.83 µM, a TGI (SF-539 CNS) of 3.8 µM and a GI50 (SK-MEL-2 melanoma) of 14.3 µM. The TGI (SK-MEL-2 melanoma) was 27.7 µM, the GI50 (SK-MEL-28 melanoma) was 3.2 µM and the TGI (SK-MEL-28 melanoma) was 11 µM. The GI50 (SK-MEL-5 melanoma) was 12.8 µM, the TGI (SK-MEL-5 melanoma) was 26.2 µM and the GI50 (SK-OV-3 ovarian) was 18.5 µM. For the same molecule, the TGI (SK-OV-3 ovarian) was 35.1 µM, the GI50 (SN12C renal) was 4.94 µM and the TGI (SN12C renal) was 17.6 µM. For the same molecule, the GI50 (SNB-19 CNS) was 15.1 µM, the TGI (SNB-19 CNS) was 28.3 µM and the GI50 (SNB-75 CNS) was 11.3 µM. The TGI (SNB-75 CNS) was 23.7 µM, the GI50 (SR leukemia) was 2.83 µM and the TGI (SR leukemia) was greater than 100 µM. The GI50 (SW-620 colon) was 1.66 µM, the TGI (SW-620 colon) was 3.32 µM and the GI50 (T-47D breast) was 2.03 µM. For the same molecule, the TGI (T-47D breast) was 4.55 µM, the GI50 (TK-10 renal) was 7.76 µM and the TGI (TK-10 renal) was 21 µM. It also gave a GI50 (U251 CNS) of 17 µM, a TGI (U251 CNS) of 31.7 µM and a GI50 (UACC-257 melanoma) of 9.8 µM. For the same molecule, the TGI (UACC-257 melanoma) was 23.1 µM, the GI50 (UACC-62 melanoma) was 7.59 µM and the TGI (UACC-62 melanoma) was 20.4 µM. It also gave a GI50 (UO-31 renal) of 3.43 µM and a TGI (UO-31 renal) of 15.3 µM.
